The values below come from ChEMBL document CHEMBL1201862, “PubChem BioAssay data set” (2004).

A word on the GI50: it is the concentration that inhibits growth by half.

Test systems include SN12C; 786-0; UO-31; HCT-116; SK-MEL-5; SK-OV-3; K562; OVCAR-4; HOP-92; CCRF-CEM; NCI-H226; UACC-257; M14; MOLT-4; U-251; KM12; HCT-15; MDA-MB-231.
What all share (assay): DTP human tumour cell line panel, 48 h

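Assay format: 96-well plates, 48-hour exposure. GI50: concentration for 50% inhibition of growth.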 Activity calls are given as the source filed them. No stated cut-off is given here; in the data, active = GI50 up to about 1.1 µM and inactive = higher.

As for `CCc1ccccc1NC(=O)C1=C(C)NC(C)=C(C(=O)Nc2ccccc2CC)C1c1ccccc1Cl`, the GI50 with SN12C is > 100 µM (inactive); with 786-0, > 100 µM (inactive); in the assay on UO-31, 35.5 µM (inactive); with HCT-116 it was > 100 µM (inactive); with SK-MEL-5 it was > 100 µM (inactive); in the assay on SK-OV-3, > 100 µM (inactive). For the same compound, the GI50 in the assay on K562 was > 100 µM (inactive); in the assay on OVCAR-4, > 100 µM (inactive); in the assay with HOP-92, 57.1 µM (inactive); with CCRF-CEM it was 37.8 µM (inactive); in the assay on NCI-H226 it was > 100 µM (inactive); with UACC-257, > 100 µM (inactive). For the same compound, the GI50 in the assay with M14 is > 100 µM (inactive); in the assay on MOLT-4 it was 92.7 µM (inactive); in the assay with U-251 it was > 100 µM (inactive); in the assay with KM12, > 100 µM (inactive).
Turning to `COc1cccc(-n2c3nc(=O)n(C)c(=O)c-3nc3ccccc32)c1`, the GI50 with SN12C is 13.7 µM (inactive); in the assay on 786-0, 24.3 µM (inactive); in the assay on UO-31, 49.8 µM (inactive); in the assay with HCT-116, 23.1 µM (inactive); in the assay on SK-MEL-5, 3.24 µM (inactive); with SK-OV-3, > 100 µM (inactive). Further, the GI50 was 24.2 µM (inactive) in the assay with K562; 13.4 µM with HCT-15; 12.3 µM (inactive) in the assay with OVCAR-4; 26 µM (inactive) in the assay with HOP-92; 19 µM (inactive) in the assay on CCRF-CEM; 17.7 µM (inactive) in the assay with NCI-H226. The GI50 in the assay with UACC-257 was 14.9 µM (inactive); with M14 it was 11.7 µM (inactive); in the assay with MOLT-4 it was 16.3 µM (inactive); in the assay with U-251, 14.4 µM (inactive); in the assay on KM12, 27.1 µM (inactive).
As for `CCOc1ccccc1NC(=O)CC1Sc2ccccc2NC1=O` (configuration not stated), the GI50 was > 100 µM (inactive) in the assay with SN12C; > 100 µM (inactive) in the assay with 786-0; 61.1 µM (inactive) with UO-31; > 100 µM (inactive) in the assay with HCT-116; 26.1 µM (inactive) with SK-MEL-5; > 100 µM (inactive) in the assay with SK-OV-3. For the same compound, the GI50 was 38 µM (inactive) with K562; 53 µM in the assay with HCT-15; 68.9 µM (inactive) in the assay on OVCAR-4; 18.2 µM (inactive) in the assay with HOP-92; 31.8 µM (inactive) in the assay with CCRF-CEM; > 100 µM (inactive) with NCI-H226. Besides, the GI50 with UACC-257 is > 100 µM (inactive); in the assay on M14, 45.8 µM (inactive); in the assay with MOLT-4, 41.5 µM (inactive); with U-251, 79.4 µM (inactive); in the assay with KM12 it was 38.1 µM (inactive).
Consider `COC(=O)N/N=C(\C)c1sc(-c2nc(C)c(/C(C)=N/NC(=O)OC)s2)nc1C`, for which the GI50 with SN12C, in the assay on 786-0, in the assay on UO-31, in the assay on HCT-116, in the assay with SK-MEL-5 and in the assay on SK-OV-3 was > 100 µM (inactive) in each case. The GI50 with K562 was > 100 µM (inactive); in the assay on HCT-15 it was more than 100 µM; with OVCAR-4, > 100 µM (inactive); with HOP-92 it was > 100 µM (inactive); in the assay with CCRF-CEM, 79.6 µM (inactive); in the assay with NCI-H226 it was > 100 µM (inactive). For the same compound, the GI50 with UACC-257, in the assay with M14, in the assay with MOLT-4, in the assay on U-251 and in the assay on KM12 was > 100 µM (inactive) each time.
As for `CC1=NN2C(c3ccc([N+](=O)[O-])cc3)=CSC2=NC(C)(C)C1`, the GI50 in the assay on SN12C was > 100 µM (inactive); in the assay with 786-0, > 100 µM (inactive); in the assay with UO-31, 88.1 µM (inactive); in the assay on HCT-116, > 100 µM (inactive); in the assay on SK-MEL-5 it was > 100 µM (inactive); in the assay with SK-OV-3 it was > 100 µM (inactive). The GI50 was > 100 µM (inactive) in the assay on K562; more than 100 µM with HCT-15; > 100 µM (inactive) in the assay on OVCAR-4; 79.6 µM (inactive) with HOP-92; > 100 µM (inactive) in the assay on CCRF-CEM; > 100 µM (inactive) in the assay on NCI-H226. The GI50 in the assay with UACC-257, with M14, in the assay on MOLT-4, in the assay with U-251 and with KM12 was > 100 µM (inactive) throughout.
In the case of `CN(C)CC1CCC/C1=N/OC(=O)c1ccccc1` (configuration not stated), the GI50 in the assay with SN12C, in the assay on 786-0, in the assay with UO-31, in the assay with HCT-116, in the assay with SK-MEL-5 and with SK-OV-3 was > 100 µM (inactive) each time. Also, the GI50 was > 100 µM (inactive) in the assay with K562; more than 100 µM in the assay with HCT-15; > 100 µM (inactive) in the assay on OVCAR-4; > 100 µM (inactive) with HOP-92; > 100 µM (inactive) in the assay with CCRF-CEM; > 100 µM (inactive) in the assay with NCI-H226. Besides, the GI50 with UACC-257, in the assay on M14, in the assay with MOLT-4 and in the assay on U-251 was > 100 µM (inactive) throughout.
In the case of `O=C(CCN(C(=O)O)S(=O)(=O)c1ccc(NC(=O)c2ccccc2)cc1)Nc1ccccc1`, the GI50 in the assay on SN12C was > 100 µM (inactive); with 786-0, > 100 µM (inactive); with UO-31 it was > 100 µM (inactive); in the assay on HCT-116 it was > 56.6 µM (inactive); in the assay on SK-MEL-5 it was > 100 µM (inactive); in the assay with SK-OV-3 it was > 100 µM (inactive). Moreover, the GI50 in the assay on K562 was > 59.3 µM (inactive); in the assay with HCT-15, more than 58.6 µM; with OVCAR-4, > 100 µM (inactive); with HOP-92, > 100 µM (inactive); in the assay on CCRF-CEM it was > 61.7 µM (inactive); in the assay with NCI-H226, > 100 µM (inactive). The GI50 was > 65.3 µM (inactive) with UACC-257; > 100 µM (inactive) in the assay on M14; > 64.6 µM (inactive) with MOLT-4; > 75.7 µM (inactive) in the assay with U-251; > 100 µM (inactive) in the assay on KM12.
As for `COC(=O)Cc1c(C2C(CC(=O)OC)c3ccccc3N2C2OC(CO)C(O)C(O)C2O)[nH]c2ccccc12` (configuration not stated), the GI50 was > 100 µM (inactive) in the assay with SN12C; > 100 µM (inactive) in the assay with UO-31; > 100 µM (inactive) in the assay with HCT-116; > 100 µM (inactive) with SK-MEL-5; > 100 µM (inactive) in the assay on SK-OV-3; more than 100 µM in the assay with HCT-15. In addition, the GI50 with OVCAR-4, in the assay with MDA-MB-231, in the assay with HOP-92, in the assay with CCRF-CEM, with UACC-257 and in the assay on M14 was > 100 µM (inactive) throughout. The GI50 in the assay on MOLT-4, with U-251 and in the assay with KM12 was > 100 µM (inactive) in each case.
For `Cc1nc2c(=O)n(C)c(=O)nc-2n(-c2ccc(Cl)cc2)c1C`, the GI50 in the assay with SN12C is > 100 µM (inactive); with 786-0 it was > 100 µM (inactive); with UO-31 it was 80.4 µM (inactive); in the assay with SK-MEL-5, 79.1 µM (inactive); with SK-OV-3, > 100 µM (inactive); with K562, 41.7 µM (inactive). The GI50 in the assay with HCT-15 was 61.9 µM; in the assay on OVCAR-4, 31 µM (inactive); in the assay with HOP-92 it was > 100 µM (inactive); with CCRF-CEM, 60.1 µM (inactive); in the assay on NCI-H226, > 100 µM (inactive); in the assay with UACC-257, > 100 µM (inactive). The GI50 is 82.6 µM (inactive) with M14, > 100 µM (inactive) in the assay with U-251 and > 100 µM (inactive) with KM12.
For `NC(=O)c1ncn(CCN2CCN(C(=O)NCCCCCCNC(=O)N3CCN(CCn4cnc(C(N)=O)c4N)CC3)CC2)c1N`, the GI50 in the assay on SN12C, in the assay on 786-0, with UO-31, in the assay with HCT-116, with SK-MEL-5 and in the assay on SK-OV-3 was > 100 µM (inactive) each time. In addition, the GI50 in the assay on K562 is > 100 µM (inactive); in the assay with HCT-15 it was more than 100 µM; with OVCAR-4, > 100 µM (inactive); in the assay on HOP-92 it was > 100 µM (inactive); in the assay with CCRF-CEM, > 100 µM (inactive); in the assay with NCI-H226, > 100 µM (inactive). For the same compound, the GI50 in the assay on UACC-257, in the assay with M14, in the assay with MOLT-4, in the assay on U-251 and in the assay with KM12 was > 100 µM (inactive) each time.
In the case of `O=C(Nc1ccccc1-c1nn(CN2CCNCC2)c(=S)n(CN2CCNCC2)c1=O)C(F)(F)F`, the GI50 was 19.4 µM (inactive) with SN12C; 18.7 µM (inactive) in the assay on 786-0; 13.6 µM (inactive) with UO-31; 17.8 µM (inactive) in the assay on HCT-116; 17.3 µM (inactive) in the assay with SK-MEL-5; 20 µM (inactive) in the assay with SK-OV-3. In addition, the GI50 in the assay with K562 is 21.9 µM (inactive); with HCT-15, 15.9 µM; with OVCAR-4, 19.5 µM (inactive); with HOP-92, 22 µM (inactive); in the assay on CCRF-CEM, 17.1 µM (inactive); in the assay on NCI-H226 it was 17.2 µM (inactive). The GI50 in the assay on UACC-257 is 17.2 µM (inactive); in the assay with M14, 16.9 µM (inactive); in the assay on MOLT-4 it was 23 µM (inactive); in the assay on U-251, 16.9 µM (inactive); with KM12 it was 19.7 µM (inactive).
On to `O=C(CC1(O)C(=O)Nc2c(Cl)cccc21)c1ccccc1` (configuration not stated), for which the GI50 in the assay with SN12C, in the assay with 786-0, in the assay with UO-31, in the assay with SK-MEL-5, with SK-OV-3 and with K562 was > 100 µM (inactive) throughout. Besides, the concentration for 50% growth inhibition (GI50) in the assay with HCT-15 was more than 100 µM; in the assay on OVCAR-4, 60 µM (inactive); in the assay on HOP-92, > 100 µM (inactive); in the assay on CCRF-CEM it was > 100 µM (inactive); in the assay on NCI-H226, > 100 µM (inactive); with UACC-257, > 100 µM (inactive). The GI50 in the assay on M14, in the assay with MOLT-4, in the assay with U-251 and with KM12 was > 100 µM (inactive) each time.
